The source made the active and inactive calls. The rule behind the calls is not given here.
Experiments:
[1] = molecular target: 72 kDa type IV collagenase (Homo sapiens, UniProt P08253); test: Inhibition of recombinant MMP-2 using succinylated gelatin as substrate incubated for 10 mins before addition of substrate measured after 60 mins by UV-Vis spectrophotometric analysis
[2] = molecular target: Aminopeptidase N (Homo sapiens, UniProt P15144); test: Inhibition of APN in human ES2 cell surface assessed as inhibition of L-Leu-p-nitroanilide substrate hydrolysis incubated for 5 mins before substrate addition by UV-Vis spectrophotometric analysis
Sequence of Aminopeptidase N (Homo sapiens, UniProt P15144) (P15144 whole entry): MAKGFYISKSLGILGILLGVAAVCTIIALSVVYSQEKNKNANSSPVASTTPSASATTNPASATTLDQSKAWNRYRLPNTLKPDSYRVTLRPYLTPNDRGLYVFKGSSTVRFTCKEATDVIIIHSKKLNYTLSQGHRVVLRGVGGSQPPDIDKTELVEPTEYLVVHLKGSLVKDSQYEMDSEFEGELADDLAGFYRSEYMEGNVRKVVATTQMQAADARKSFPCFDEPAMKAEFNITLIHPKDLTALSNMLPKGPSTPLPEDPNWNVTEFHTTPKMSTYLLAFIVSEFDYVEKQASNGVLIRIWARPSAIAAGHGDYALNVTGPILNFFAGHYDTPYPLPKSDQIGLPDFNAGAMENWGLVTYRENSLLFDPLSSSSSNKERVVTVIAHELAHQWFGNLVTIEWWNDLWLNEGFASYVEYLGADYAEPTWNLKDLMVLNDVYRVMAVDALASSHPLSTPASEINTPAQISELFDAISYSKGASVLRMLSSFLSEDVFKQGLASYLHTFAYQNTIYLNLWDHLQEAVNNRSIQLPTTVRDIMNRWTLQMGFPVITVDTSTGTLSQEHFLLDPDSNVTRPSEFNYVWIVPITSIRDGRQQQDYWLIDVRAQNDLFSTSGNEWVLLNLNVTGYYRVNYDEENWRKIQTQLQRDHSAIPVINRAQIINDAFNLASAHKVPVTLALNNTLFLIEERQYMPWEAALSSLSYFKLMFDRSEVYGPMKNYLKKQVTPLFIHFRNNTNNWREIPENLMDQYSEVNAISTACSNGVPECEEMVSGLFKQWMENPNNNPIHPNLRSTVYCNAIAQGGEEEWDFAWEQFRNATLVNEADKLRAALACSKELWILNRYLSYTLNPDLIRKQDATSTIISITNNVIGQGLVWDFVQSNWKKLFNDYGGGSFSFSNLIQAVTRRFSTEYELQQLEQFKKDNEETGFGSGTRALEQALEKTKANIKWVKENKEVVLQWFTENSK

[3] = Cytotoxicity against human ES2 cells assessed as cell growth inhibition rate at 50 ug/ml after 24 hrs by MTT assay; assay type: cell-based; conditions: read-out: GI
[4] = Cytotoxicity against human ES2 cells assessed as cell growth inhibition rate at 5 ug/ml after 24 hrs by MTT assay; assay type: cell-based; conditions: read-out: GI
[5] = molecular target: T1, Aminopeptidase N (Sus scrofa, UniProt P15145); test: Inhibition of APN in porcine kidney microsome assessed as inhibition of L-Leu-p-nitroanilide substrate hydrolysis incubated for 5 mins before substrate addition by UV-Vis spectrophotometric analysis; assay type: microsomes
T1 sequence (P15145 whole entry): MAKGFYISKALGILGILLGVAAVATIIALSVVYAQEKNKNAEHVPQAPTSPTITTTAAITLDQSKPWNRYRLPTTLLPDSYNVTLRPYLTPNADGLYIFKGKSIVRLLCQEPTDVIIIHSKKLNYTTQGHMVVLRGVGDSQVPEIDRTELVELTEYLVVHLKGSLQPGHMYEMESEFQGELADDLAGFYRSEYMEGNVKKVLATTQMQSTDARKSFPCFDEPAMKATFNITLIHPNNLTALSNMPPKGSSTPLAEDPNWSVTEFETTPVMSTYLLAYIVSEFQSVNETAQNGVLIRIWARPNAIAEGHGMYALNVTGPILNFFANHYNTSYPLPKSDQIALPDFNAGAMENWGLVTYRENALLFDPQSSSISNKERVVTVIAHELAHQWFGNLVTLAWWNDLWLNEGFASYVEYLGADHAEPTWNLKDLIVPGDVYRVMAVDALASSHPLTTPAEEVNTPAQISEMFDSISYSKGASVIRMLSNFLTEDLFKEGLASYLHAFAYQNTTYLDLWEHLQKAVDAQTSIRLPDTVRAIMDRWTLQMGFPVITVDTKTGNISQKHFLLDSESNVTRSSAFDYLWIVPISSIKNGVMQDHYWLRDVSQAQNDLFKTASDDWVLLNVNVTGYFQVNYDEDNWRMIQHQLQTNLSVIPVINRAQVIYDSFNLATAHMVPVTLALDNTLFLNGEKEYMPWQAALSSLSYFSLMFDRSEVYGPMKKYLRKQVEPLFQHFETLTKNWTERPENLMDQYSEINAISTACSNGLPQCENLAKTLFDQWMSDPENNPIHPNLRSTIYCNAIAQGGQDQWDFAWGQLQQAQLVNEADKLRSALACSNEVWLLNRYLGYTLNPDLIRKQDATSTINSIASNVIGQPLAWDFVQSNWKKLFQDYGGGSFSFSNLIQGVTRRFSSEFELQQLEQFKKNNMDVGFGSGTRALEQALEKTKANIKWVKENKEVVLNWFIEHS

[6] = tested on: ES2; test: Inhibition of human ES2 cell invasion at 15 to 150 uM after 8 hrs by Matrigel invasion assay; assay type: functional, cell-based
[7] = molecular target: T2, Aminopeptidase N (Mus musculus, UniProt P97449); test: Inhibition of mouse APN
T2 sequence (P97449 whole entry): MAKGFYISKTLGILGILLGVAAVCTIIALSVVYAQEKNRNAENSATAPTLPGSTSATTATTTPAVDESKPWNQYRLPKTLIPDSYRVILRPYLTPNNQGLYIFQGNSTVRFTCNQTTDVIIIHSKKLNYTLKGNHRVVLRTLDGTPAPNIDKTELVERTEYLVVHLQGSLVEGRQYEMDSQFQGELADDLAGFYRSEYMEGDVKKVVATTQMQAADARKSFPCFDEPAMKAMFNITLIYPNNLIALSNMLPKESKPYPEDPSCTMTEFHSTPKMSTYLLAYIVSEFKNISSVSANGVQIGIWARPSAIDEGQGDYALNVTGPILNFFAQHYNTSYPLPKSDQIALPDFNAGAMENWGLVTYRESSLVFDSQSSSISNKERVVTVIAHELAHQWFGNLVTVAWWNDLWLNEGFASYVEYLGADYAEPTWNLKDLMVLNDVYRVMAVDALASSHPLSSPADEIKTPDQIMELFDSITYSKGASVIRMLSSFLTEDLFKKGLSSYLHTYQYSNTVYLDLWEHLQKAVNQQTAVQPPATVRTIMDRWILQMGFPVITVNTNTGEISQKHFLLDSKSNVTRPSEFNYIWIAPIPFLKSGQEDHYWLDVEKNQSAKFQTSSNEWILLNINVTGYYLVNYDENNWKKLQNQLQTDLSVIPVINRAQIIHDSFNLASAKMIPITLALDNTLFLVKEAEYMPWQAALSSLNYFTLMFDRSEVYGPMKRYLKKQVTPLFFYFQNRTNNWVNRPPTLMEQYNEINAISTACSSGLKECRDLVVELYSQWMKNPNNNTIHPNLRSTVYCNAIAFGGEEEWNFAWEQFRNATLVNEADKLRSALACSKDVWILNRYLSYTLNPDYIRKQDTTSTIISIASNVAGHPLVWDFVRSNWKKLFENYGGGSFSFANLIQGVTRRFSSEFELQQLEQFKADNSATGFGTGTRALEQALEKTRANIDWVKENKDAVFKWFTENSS

[8] = molecular target: T2, Aminopeptidase N; test: Inhibition of APN in mouse B16-BL6 cell surface assessed as inhibition of L-Leu-p-nitroanilide substrate hydrolysis incubated for 5 mins before substrate addition by UV-Vis spectrophotometric analysis
[9] = tested on: B16-BL6; test: Antiangiogenic activity against mouse B16-BL6 cells xenografted in C57BL/6 mouse assessed as decrease in number of vessels oriented towards the tumor mass at 100 mg/kg/day, ip administered for 4 days measured on day 5 by dissecting microscopic analysis; assay type: functional, organism-based
[10] = Cytotoxicity against mouse B16-BL6 cells assessed as cell growth inhibition after 24 hrs by MTT assay; assay type: cell-based
[11] = tested on: HUVEC; test: Antiangiogenesis activity against HUVEC assessed as decrease in capillary tubular structure formation at 25 ug/ml after 8 hrs by microscopic analysis; assay type: functional, cell-based; conditions: Homo sapiens
[12] = tested on: ES2; test: Inhibition of human ES2 cell migration at 150 uM by crystal violet staining based microscopic analysis; assay type: functional
[13] = tested on: B16-BL6; test: Antimetastatic activity against mouse B16-BL6 cells xenografted in C57BL/6 mouse assessed as decrease in number of pulmonary metastatic colonies at 100 mg/kg/day, ip administered for 13 days measured on day 14; assay type: functional, organism-based
[14] = tested on: ES2; test: Inhibition of human ES2 cell invasion after 8 hrs by Matrigel invasion assay; assay type: functional, cell-based

Sequence of 72 kDa type IV collagenase (P08253 whole entry): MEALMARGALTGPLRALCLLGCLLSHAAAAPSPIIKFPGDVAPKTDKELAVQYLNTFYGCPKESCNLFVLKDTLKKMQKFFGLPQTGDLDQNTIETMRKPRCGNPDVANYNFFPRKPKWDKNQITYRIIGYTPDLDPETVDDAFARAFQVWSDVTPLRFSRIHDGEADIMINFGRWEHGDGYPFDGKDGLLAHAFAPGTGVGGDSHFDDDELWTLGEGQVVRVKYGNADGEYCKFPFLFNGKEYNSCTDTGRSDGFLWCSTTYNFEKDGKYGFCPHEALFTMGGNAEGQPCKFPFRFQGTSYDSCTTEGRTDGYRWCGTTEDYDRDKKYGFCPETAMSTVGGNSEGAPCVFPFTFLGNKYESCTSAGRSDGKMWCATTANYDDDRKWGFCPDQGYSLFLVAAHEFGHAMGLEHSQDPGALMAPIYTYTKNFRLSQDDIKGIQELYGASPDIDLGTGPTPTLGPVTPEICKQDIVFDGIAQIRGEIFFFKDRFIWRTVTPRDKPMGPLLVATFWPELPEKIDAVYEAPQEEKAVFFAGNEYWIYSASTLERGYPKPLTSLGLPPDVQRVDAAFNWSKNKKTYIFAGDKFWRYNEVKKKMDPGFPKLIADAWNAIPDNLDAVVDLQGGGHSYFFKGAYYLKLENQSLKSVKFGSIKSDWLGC

SMILES | IC50 [1] [µM] | IC50 [2] [µM] | IC50 [5] [µM] | inhibition at 24 h, 50 ug/ml [3] [%] | inhibition at 24 h, 5 ug/ml [4] [%] | also measured
CC(C)C[C@H](NC(=O)Cc1ccccc1)C(=O)NO | – | – | > 10 | – | – | –
O=C(Nc1ccccc1)N[C@H](C(=O)NO)c1ccccc1 | – | – | 5.9 | – | – | –
CC(C)C[C@H](NC(=O)OCCCc1ccccc1)C(=O)NO | – | – | > 10 | – | – | –
O=C(NCCCCc1ccccc1)N[C@H](C(=O)NO)c1ccccc1 | – | – | 5.5 | – | – | –
CC(C)C[C@H](NC(=O)Nc1ccccc1)C(=O)NO | – | – | 2.7 | – | – | –
CC(C)C[C@H](NC(=O)[C@@H](O)[C@H](N)Cc1ccccc1)C(=O)O [UBENIMEX] | 276 | – | – | 2.89 | < 1 | inhibition [6]: Active; Ki [7]: 3.03 µM; IC50 [8]: 23.2 µM; Activity [9]: Active; GI50 at 24 h [10]: > 500 µM; Activity [11]: Active; inhibition [12]: Active
CSCC[C@H](NC(=O)NCCCc1ccccc1)C(=O)NO | – | – | 7 | – | – | –
O=C(NCCCCc1ccccc1)N[C@@H](Cc1ccccc1)C(=O)NO | – | – | 2.8 | – | – | –
CC(C)C[C@H](NC(=O)Nc1ccc(F)cc1)C(=O)NO | – | – | 2.5 | – | – | –
CC(C)C[C@H](NC(=O)NCCCc1ccccc1)C(=O)NO | – | – | 3.4 | – | – | –
O=C(NCc1ccc(F)cc1)N[C@H](C(=O)NO)c1ccccc1 | – | – | 5 | – | – | –
O=C(Nc1ccc(F)cc1)N[C@H](C(=O)NO)c1ccccc1 | – | – | 9.9 | – | – | –
CC[C@H](C)[C@H](NC(=O)NCCCCc1ccccc1)C(=O)NO | – | – | > 10 | – | – | –

Further lines, with some results ahead:

IC50 [1] [µM] | IC50 [2] [µM] | IC50 [5] [µM] | SMILES | inhibition at 24 h, 50 ug/ml [3] [%] | inhibition at 24 h, 5 ug/ml [4] [%] | also measured
> 1000 | 6.4 | 0.57 | COc1ccc(NC(=O)N[C@@H](CC(C)C)C(=O)NO)cc1 | 6.85 | < 1 | –
– | – | 1.03 | COc1ccc(CNC(=O)N[C@H](C(=O)NO)c2ccccc2)cc1 | – | – | –
– | – | 2.1 | CC(C)C[C@H](NC(=O)Nc1ccc(-c2ccccc2)cc1)C(=O)NO | – | – | –
– | – | 1.64 | Cc1ccc(CNC(=O)N[C@H](C(=O)NO)c2ccccc2)cc1 | – | – | –
– | – | 2.3 | CC(C)C[C@H](NC(=O)NCCCCc1ccccc1)C(=O)NO | – | – | –
> 1000 | 6.9 | 0.83 | COc1ccc(CNC(=O)N[C@@H](CC(C)C)C(=O)NO)cc1 | < 1 | < 1 | –
> 1000 | 0.91 | 0.73 | CC(C)C[C@H](NC(=O)NCc1ccc(F)cc1)C(=O)NO | 11.9 | < 1 | –
– | – | 0.66 | CC(C)C[C@H](NC(=O)NCc1cccs1)C(=O)NO | – | – | –
– | – | 2.3 | CC(C)C[C@H](NC(=O)NCc1ccco1)C(=O)NO | – | – | –
– | – | 0.98 | O=C(NCc1ccccc1)N[C@H](C(=O)NO)c1ccccc1 | – | – | –
545 | 0.42 | 0.05 | CC(C)C[C@H](NC(=O)NCc1cccc2ccccc12)C(=O)NO | 6.67 | < 1 | IC50 [8]: 1.82 µM; Activity [13]: Active; Activity [9]: Active; GI50 at 24 h [10]: > 500 µM; Activity [11]: Active; inhibition [12]: Active; inhibition [14]: Dose-dependent effect
> 1000 | 0.48 | 0.099 | CC(C)C[C@H](NC(=O)Nc1cccc2ccccc12)C(=O)NO | 3.63 | < 1 | IC50 [8]: 2.26 µM; Activity [13]: Active; Activity [9]: Active; GI50 at 24 h [10]: > 500 µM; Activity [11]: Active; inhibition [12]: Active; inhibition [14]: Dose-dependent effect
573 | 0.94 | 0.33 | Cc1ccc(NC(=O)N[C@@H](CC(C)C)C(=O)NO)cc1 | 1.78 | < 1 | inhibition [12]: Active; inhibition [14]: Dose-dependent effect
– | – | 1.9 | O=C(NCCc1ccccc1)N[C@H](C(=O)NO)c1ccccc1 | – | – | –
> 1000 | 0.79 | 0.29 | COc1cccc(CNC(=O)N[C@@H](CC(C)C)C(=O)NO)c1 | < 1 | < 1 | IC50 [8]: 5.61 µM; Activity [13]: Active; Activity [9]: Active; GI50 at 24 h [10]: > 500 µM; Activity [11]: Active; inhibition [12]: Active; inhibition [14]: Dose-dependent effect
> 1000 | 1.5 | 0.41 | Cc1ccc(CNC(=O)N[C@@H](CC(C)C)C(=O)NO)cc1 | 1.83 | < 1 | –
– | – | 2.2 | O=C(NCCCc1ccccc1)N[C@H](C(=O)NO)c1ccccc1 | – | – | –
> 1000 | 1.1 | 0.57 | COc1ccccc1CNC(=O)N[C@@H](CC(C)C)C(=O)NO | 3.29 | < 1 | –
> 1000 | 3 | 0.69 | CC(C)C[C@H](NC(=O)NCc1cccc(F)c1)C(=O)NO | 2.81 | < 1 | –
